The source of these data is patent publication US20080008768A1, “Compositions and Methods for Inhibiting Sonic Hedgehog Activity” (priority 2004, published 2008).

“And” between values parts separate entries of the source, which are not always exact repeats. Identical values can stand only once. Like-named read-outs stand apart in the source and are kept apart here. Marks after values point to notes of the source that are not given here.

Series [1] concerns mouse embryo zone of polarizing activity (ZPA). To be noted: Bell, et al. (1999); cited from earlier work.
The subject of series [2] is Shh-dependent pancreatic cancer cell line L3.6pl. It counts as cell-based. To be noted: for Cell Growth (normalized): normalized to cell growth in carrier.
Series [3] concerns Ptch1. Briefly: Whole mount in situ hybridization, Ptch1. In kind it is in vivo, mouse. To be noted: right forelimb, 24 hours after treatment. As to the method: (§1) Whole Mount In Situ Hybridization. Assays were performed in accordance with standard methods (Wilkinson and Nieto (1993) Meth. Enzymol. 225:361-373). Embryos from control and cadmium-exposed pregnancies were processed together in the same vessel, examined and photographed using an OLYMPUS® SZX9 stereomicroscope. Digoxigenin-labeled riboprobes were transcribed from linearized DNA templates.
(§2) The expression pattern of four genes (i.e., Shh, Ptch1, Gli3, and Fgf8) in the right forelimb of control and cadmium-exposed embryos was examined by whole mount in situ hybridization 24 hours after treatment. The expression of Shh was restricted to the posterior mesenchymal cells of the developing murine limb bud.

Series [4] has as its system Shh. Briefly: Whole mount in situ hybridization, Shh. It counts as in vivo, mouse. To be noted: right forelimb, 24 hours after treatment. As to the method: as §1, §2
In series [5] the test system is mouse embryo zone of polarizing activity (ZPA). As to the kind of experiment: Polarizing activity of mouse embryo ZPA grafted to chick wing bud. In kind it is in vivo. As to the method: Polarizing Activity. Fertilized White Leghorn eggs (SPAFAS) were incubated at 38° C. On the second day, 1 to 2 mL of albumin were removed so that the eggs could be windowed the next day without damaging the embryo. After windowing, 3 drops of penicillin/streptomycin (50 units/mL) were added and the window closed with SCOTCH™ tape. On the fourth day of incubation a piece of day 10.5 mouse embryo right forelimb was excised from the posterior aspect (i.e., ZPA) of cadmium sulfate- or PBS-exposed embryos and grafted between the ectoderm and mesenchyme at the anterior margin of a stage 19/20 (Hamburger and Hamilton (1951) J. Morphol. 88:49-92) chick right wing bud. After grafting, 3 drops of penicillin/streptomycin were added, the window closed with tape and the egg replaced in the incubator for 7 additional days. At this time the chick embryo was sacrificed and the right wing bud processed for skeletal examination (Kuczuk and Scott (1984) supra). After staining, the digit pattern was determined and the index of polarizing activity was assessed according to standard methods (Honig, et al. (1981) J. Embryol. Exp. Morph. 62:203-216),

The subject of a further series is Fgf8. As to the kind of experiment: Whole mount in situ hybridization, Fgf8. To be noted: day 10.5, 24 hours after administration. In kind it is in vivo, mouse. As to the method: as §1, §2
Series [6] deals with Gli3. As to the kind of experiment: Quantitative RT-PCR of forelimb buds, Gli3. It counts as in vivo, mouse. To be noted: limb buds of day 10.5 embryos, normalized to tubulin. As to the method:
(§3) Real Time Reverse Transcribed-Polymerase Chain Reaction (RT-PCR). Precise levels of message expression of Shh, Ptch1, and Gli3 were performed by RT-PCR. […] Right and left forelimb buds from a single litter (n=3) were pooled separately and equal amounts of total RNA were reverse-transcribed using […]™ II (INVITROGEN™, Carlsbad, Calif.) in the presence of oligo-dT or random primers. For quantitative PCR, aliquots of the reverse transcription reaction were amplified in the presence of SYBR® Green (Quantitect SYBR® green PCR kit; QIAGEN®, Valencia, Calif.) and gene specific primers for Shh, Ptch1, Gli3 and aTub. […] The PCR amplifications and monitoring of product generation per cycle were performed using a DNA Engine OPTICON® 2 Continuous Fluorescence Detector and evaluated using its software. Gene expression levels were determined by gene-specific standard curves in the linear amplification phase. All values were normalized to tubulin within the same sample.

A further series has as its system Shh signaling. As to the kind of experiment: Shh signaling activity of forelimb bud lysate in Shh-Light 2 cells (Gli-luciferase reporter). It counts as cell-based, mouse. To be noted: lysate of E10.5 right forelimb bud cells, 24 h after 4 mg/kg to dam. Here is the method:
Shh Signaling Activity. Pregnant C57BL/6 mice were treated with CdSo4, 4 mg/kg, or PBS, 10 mL/kg, at 9:00 pm on day 9 of gestation. Twenty-four hours post-treatment the dams were sacrificed. The implantation sites were removed and frozen in liquid nitrogen. Samples were stored at −80° C. until use in the Shh activity assay.
To create a sample of cell lysate, a litter of implantation sites was thawed and the embryos dissected free of their surrounding membranes. Somites were counted and the embryo limb staged according to standard practices (Wanek, et al. (1989) J. Exp. Zool. 249:41-49). […] Samples were sonicated and DNA measured using the HOEFER™ DYNA QUANT™ 200 Fluorimeter. After DNA quantification, fetal bovine serum was added so that the final concentration of serum was 0.5%.
Assay of SHH signaling activity was conducted in Shh-Light 2 cells, an NIH-3T3-derived stable cell line containing an integrated Gli-luciferase and constitutive Renilla luciferase reporters. […] Using the DUAL-LUCIFERASE® Reporter Assay System (PROMEGA®, Madison, Wis.), luciferase activity was measured and normalized to a Renilla control.
A more direct and specific assay of Shh signaling is provided in Shh-Light 2 cells. […] Culture of these cells with a medium or cellular homogenate containing Shh activates reporter expression and that activity can be quantitated luminometrically.
(In general: In a reporter assay the amount or activity of a reporter protein is the signal.)

Series [7] has as its system Shh. As to the kind of experiment: Quantitative RT-PCR of forelimb buds, Shh. To be noted: limb buds of day 10.5 embryos, normalized to tubulin. It counts as in vivo, mouse. Here is the method: as §3
The test system of another series is C57BL/6CrIBR mice. As to the kind of experiment: Cadmium-induced forelimb ectrodactyly in fetuses of treated pregnant mice. In kind it is in vivo, mouse. As to the method:
Cadmium-induced Forelimb Ectrodactyly. C57BL/6CrIBR mice were purchased from Charles River Laboratories (Wilmington, Mass.). Individual males were placed in female cages for the last 2-3 hours of the 12 hour dark cycle (10:00 pm to 10:00 am). The presence of a vaginal plug indicated a successful mating and 9:00 am was considered time zero of pregnancy. On day 7 of gestation, plugged females were lightly anesthetized with Isofluorane and checked for pregnancy by abdominal palpation. The pregnant females were administered CdSO4 (SIGMA, St. Louis, Mo.), 4 mg/kg in phosphate-buffered saline (PBS), intraperitoneally, at 9:00 pm on day 9. These pregnant females were then allowed free access to food and water until day 18 when they were sacrificed by Isofluorane overdose. The fetuses were removed from the uterus and prepared for skeletal analysis by double-staining of cartilage and bone (Kuczuk and Scott (1984) supra).
CdSo4, 4 mg/kg, was administered intraperitoneally on day 9 of gestation.

The test system of series [8] is Gli3. Briefly: Whole mount in situ hybridization, Gli3. It counts as in vivo, mouse. To be noted: right forelimb, 24 hours after treatment. As to the method: as §1, §2
For series [9], the system named is Ptch1. Briefly: Quantitative RT-PCR of forelimb buds, Ptch1. In kind it is in vivo, mouse. To be noted: limb buds of day 10.5 embryos, normalized to tubulin. Here is the method: as §3
Where [10] appears, read: 4 mg/kg i.p. day 9 of gestation, 8 dams, 68 implantation sites.
Setting [11] is: 4 mg/kg i.p. day 9 of gestation, fetuses examined day 18.

`CC(=O)Nc1nnc(S(N)(=O)=O)s1` [Acetazolamide, reference compound]: the “Signaling by Shh protein measured by polarizing activity of ZPA (in words)” value in series [1] is “almost totally abolished”. For the same compound, the “Cell Growth (normalized)” value in [2] (inhibitor 10 μM) amounted to 1.0312; in [2] (inhibitor 100 μM), 1.0370; in [2] (inhibitor 1000 μM) it was 1.0130.
In the case of Cadmium Sulfate, the “Ptch1 expression pattern (in words)” value in the series on Ptch1 [3] is on record as “unchanged”. Besides, the “Shh expression location or intensity (in words)” value in the series with Shh [4] is reported as “No discernable difference”. Also, the “Capability of ZPA to induce limb reduplication (in words)” value in series [5] (day 10.5 mouse embryo ZPA after exposure) is “severely inhibited”. Further, the “Induced Digit Pattern” value in series [5] (individual grafts of day 10.5 ZPA from exposed embryos, x = unidentifiable partial duplicated digit, listed as CdSo4) is 22234 and 234 (4×). The “Fgf8 staining (in words)” value with Fgf8 is “slight truncation of Fgf8 staining posteriorly”. Moreover, the “Gli3 mRNA level (in words)” value with Gli3 [6] is on record as “A reduction of mRNA levels was not observed”. The “Shh signaling level compared to lysate from control embryo right forelimb buds” value with Shh signaling is recorded as 25%. Moreover, the “Shh mRNA level (in words)” value in the series with Shh [7] is “A reduction of mRNA levels was not observed”. Further, in the series on C57BL/6CrIBR mice (4 mg/kg i.p. day 9), the “Fetuses with right forelimb affected by postaxial ectrodactyly” value is recorded as 78%; the “Number of fetuses with ectrodactyly, Bilateral R < L” value is 3; the “Number of fetuses with ectrodactyly, Bilateral R = L” value was 21; the “Number of fetuses with ectrodactyly, Bilateral R > L” value is reported as 5. The “Number of fetuses with ectrodactyly, LFL Only” value with C57BL/6CrIBR mice (4 mg/kg i.p. day 9, left forelimb only) came out at 4. The “Number of fetuses with ectrodactyly, RFL Only” value with C57BL/6CrIBR mice (4 mg/kg i.p. day 9, right forelimb only) is 12*. Also, in the series with C57BL/6CrIBR mice (setting [10]), the “No. Resorptions” value is 15 and the “Resorptions (%)” value is on record as 22%. Moreover, in the series with C57BL/6CrIBR mice (setting [11]), the “Fetuses with Postaxial Forelimb Ectrodactyly (%)” value worked out at 85% and the “No. Fetuses with Postaxial Forelimb Ectrodactyly” value was found to be 45. In addition, in the series with Gli3 [8], the “Gli3 expression (in words)” value was “did not alter Gli3 expression”. In the series with Ptch1 [9], the “Ptch1 mRNA level (in words)” value was “A reduction of mRNA levels was not observed”. The “Inhibition of proliferation (in words)” value in series [2] (comparison of inhibitors) is “more effectively than cyclopamine and acetazolamide”. Also, in series [2] (inhibitor 1 μM), the “Cell Growth (normalized)” value is 1.0341. In addition, the “Cell Growth (normalized)” value in series [2] (inhibitor 10 μM) stood at 0.9007. For the same compound, the “Cell Growth (normalized)” value in series [2] (inhibitor 30 μM) stood at 0.7200. Besides, the “Cell Growth (normalized)” value in series [2] (inhibitor 100 μM) is listed as 0.0041. Also, the “Cell Growth (normalized)” value in series [2] (inhibitor 1000 μM) was determined as 0.0029.
